{
  "source": "patent US4695590A",
  "about": "“Method for retarding aging” (California Health Technologies, priority 1986, dated 1987)",
  "key": {"[1]": {"system": "microvascular lipid hydroperoxides", "assay": "Pharmacokinetic time-course (double-blind) study of single oral doses of NDGA, microvascular lipid hydroperoxides", "format": "in vivo, human", "procedure": "Placebos were given to two (2) other volunteers. Using the above referenced non-invasive technique called reflective, near-infrared spectroscopy, changes in the microvascular concentrations of lipid hydroperoxides were monitored during 8 hour test periods. […] Subjects received single doses of NDGA and placebos orally, respectively."}, "[2]": {"system": "lipid hydroperoxides in the skin", "format": "in vivo, human", "text": "FIG. 3 is a graph showing the results of a double blind study set forth in Example 6, wherein a composition containing 2% NDGA by weight was applied topically to the skin of the foreheads of human volunters; and\nTurning to FIG. 3, the results of a double-blind time study using a composition containing 2% by weight NDGA can be seen. This composition was the same as the composition set forth in Example 3 with the exception that the percentage of water was reduced to 86.5%. Starting at time zero, 10 milliliters of this cream was vigorously applied topically onto the skin of the forehead of a volunteer. Measurements were taken at different intervals using non-invasive, reflective, near-infrared spectroscopy. The methods of non-invasive, reflective, near infrared spectroscopy used in this example are set forth in detail in R. Lippman, \"Rapid in vivo Quantification and Comparision of Hydroperoxides and Oxidized Collagen in Aging Mice, Rabbits and Man\", Experimental Gerontology, Vol. 20, pp. 1-5, 1985, which is incorporated herein by this reference."}, "[3]": {"system": "Glial cells from a human brain", "assay": "Cellular ATP production in cultivated glial cells (bioluminescence)", "format": "cell-based", "settings": "NDGA 0.5% w/v in culture", "procedure": "Glial cells from a human brain were cultivated by monolayering on Petri dishes. Cellular ATP production was measured using bioluminescent methods (luciferin, luciferase and photomultiplier detection)."}, "[4]": {"system": "Mitochondria from a human liver", "assay": "Chemiluminescent probe of superoxide and hydroxyl radicals in isolated mitochondria", "format": "biochemical", "text": "Mitrochondria from a human liver were freshly isolated and maintained in a culture environment so that normal respiration and ATP production occurred. Special chemical probes, e.g. luminol-carnitine derivatives, were pipetted into the mitochondria culture media. Uptake of the probes occurred in the mitrochondrial inner membrane where oxygen metabolism and toxic oxygen byproducts are produced. The probes emitted chemiluminescent light in proportion to superoxide (O2^-.) and hydroxyl radicals (.OH). This light was measured by a photomultiplier, and the results were quantified and recorded."}, "Uppsala mice": {"system": "Uppsala mice", "assay": "Uppsala mice fed lab chow containing 0.5 weight% NDGA, observation of aging and skin wrinkling", "format": "in vivo", "text": "In one aspect of practice of techniques of this invention, the compounds of formula (1) are useful in retarding the aging phenomena of skin wrinkling. In this example, twenty four (24) Uppsala mice were fed standard lab chow (provided by Anticimax of Sodertalje, Sweden) containing 0.5 weight% NDGA ad libitum from the twelfth to thirty-sixth month of their lifespan.\nThis increased wrinkling is indicative of collagen and elastin hardening and cross-linking via the conversion of imide to amide bonds as discussed above."}, "[5]": {"settings": "isolated human liver mitochondria"}},
  "data": [
    {"smiles": "CC(Cc1ccc(O)c(O)c1)C(C)Cc1ccc(O)c(O)c1", "note": "(stereo not drawn) [NDGA, 1,4-bis(3,4-dihydroxyphenyl)-2,3-dimethylbutane]", "values": [
      {"measurement": "reduction of levels of microvascular lipid hydroperoxides", "setting": "[1]; oral, single doses 50, 75, 100 and 200 mg, during the 4 to 8 hour study periods", "result": "at least 15%"},
      {"measurement": "neutralization of toxic byproducts of oxygen metabolism, i.e. lipid hydroperoxides (conclusion)", "setting": "[1]; when taken at regular intervals of at least 6 hours, 3 times daily", "result": "effective neutralizer of toxic byproducts of oxygen metabolism"},
      {"measurement": "facial skin and skin unsaturated lipids, damage", "setting": "[2]; 2% by weight NDGA cream topically on forehead", "result": "facial skin and skin unsaturated lipids are preserved, and damage is prevented"},
      {"measurement": "return to normal level of lipid hydroperoxides", "setting": "[2]; 2% by weight NDGA cream topically, after approximately 4 hours", "result": 190, "unit": "micromole/cm^2"},
      {"measurement": "lipid hydroperoxides in skin layers and microvascularization, level decreased to", "setting": "[2]; 2% by weight NDGA cream, 10 milliliters topically on forehead, after about one hour, from about 190", "result": "~151", "unit": "micromole/cm^2 skin"},
      {"measurement": "steady state ATP production", "setting": "[3]", "result": "increase in steady state ATP production was observed"},
      {"measurement": "lifespan of the human mitochondria", "setting": "[4]; [5]", "result": "Increased lifespan of the human mitochondria"},
      {"measurement": "toxic oxygen byproducts", "setting": "[4]; [5]", "result": "significantly reduced toxic oxygen byproducts"},
      {"measurement": "steady state light (chemiluminescence of superoxide and hydroxyl radicals)", "setting": "[4]; luminol-carnitine derivative probes", "result": "significantly reduced the steady state light"},
      {"measurement": "skin wrinkling, control mice versus NDGA fed mice", "setting": "Uppsala mice; 0.5 weight% NDGA in chow", "result": "greater skin wrinkling in control mice versus NDGA fed mice"},
      {"measurement": "visual appearance (youthful and healthy) versus control mice", "setting": "Uppsala mice; 0.5 weight% NDGA in chow from twelfth month, at 26 months of age", "result": "visually more youthful and healthy"},
      {"measurement": "NDGA fed mice still living", "setting": "Uppsala mice; 24 mice at start, 0.5 weight% NDGA in chow, one control mouse of 6 remaining", "result": "four"}
    ]}
  ]
}
